For data set [1], the system named is Dengue 2, New Guinea strain (NGC). In words: DENV-2 moDC EC50. Type of data set: cell-based. The following applies: Dengue virus, Dendritic cell; human monocyte-derived dendritic cells, 48 hours, qPCR. The protocol: Human monocyte-derived dendritic cells (moDCs) were derived from CD14+ monocytes (AllCells) cultured in Human Mo-DC Differentiation medium containing GM-CSF and IL-4 (Miltenyi Biotec). On day 7, moDCs were harvested by mechanical disruption, washed and suspended in serum-free RPMI. moDCs were infected with Vero-derived Dengue 2, New Guinea strain (NGC) at a MOI=0.1 for two hours in serum-free RPMI with gentle agitation at 37° C. Cells were washed and resuspended in 10% serum-containing RPMI (Gibco, supplemented with sodium pyruvate, NEAA, Penicillin-Streptomycin). 10^5 cells were plated in triplicate in 96-well plates with compounds dispensed at graded doses (Hewlett-Packard D300 Digital Dispenser). All wells were normalized to 0.25% DMSO. At 48 hours, cells were washed with 1×PBS and all supernatants removed. Total RNA was extracted using RNEasy 96 plates (Qiagen) and used to generate first-strand cDNA using XLT cDNA 5× Supermix (QuantaBio). cDNA was used as a template in a Taqman qPCR duplex reaction specific to DENV2 viral and GAPDH gene expression. EC50 values were determined using Prism Graphpad software, with normalization to a positive control and no compound negative control wells.
For orientation: Quantitative PCR measures a nucleic acid by following its amplification.

Data set [2] in a line: NHBE in-vitro intracellular triphosphate formation. Type of data set: in vitro ADME, human. The following applies: 10 μM, up to 26 h, compared to compound 2 and/or 6 (FIG. 1). The protocol: In-vitro intracellular triphosphate formation was measured for the compound of Formula I and compound 6 using the following protocol. Normal human bronchial airway epithelial cells (NHBEs) (0.25 million cells/well) were continuously incubated with 10 μM of compound for 26 hours. At select time points (2, 4, 6, and 26 h), the extracellular medium was removed from the well and the cells were washed twice with 2 mL of ice-cold 0.9% normal saline and extracted into 0.5 mL ice-cold 70% methanol containing 100 nM 2-chloro-adenosine-5′-triphosphate (Sigma-Aldrich, St. Louis, MO) as an internal standard. Samples were stored overnight at −20° C. to facilitate nucleotide extraction, centrifuged at 15,000×g for 15 minutes and then supernatant was transferred to clean tubes for drying in a MiVac Duo concentrator (Genevac, Gardiner, NY). Dried samples were then reconstituted in mobile phase A containing 3 mM ammonium formate (pH 5.0) with 10 mM dimethylhexylamine (DMHA) in water for analysis by LC-MS/MS.

The next data set concerns HRVc25 replicon. In words: HRVc25 HeLa replicon EC50. Type of data set: cell-based. Particulars: Human rhinovirus sp., HRV25, H1-HeLa, 48 h, read-out: HRV25 Rep EC50. The protocol: First, HRV replicon RNA is prepared. 5 μg of DNA Template (HRVc15 or HRVc25) is linearized with 2 μL of MluI enzyme in NEB buffer-3 in a final volume of 25 μL for 3 hours at 37° C. Following incubation, linearized DNA is purified on a PCR purification column and the following in vitro transcription is performed using the following conditions: 10 μL of RiboMAX Express T7 2× buffer, 1-8 μL of linear DNA template (1 μg), 0-7 μL nuclease free water, 2 μL enzyme mix T7 express. The final volume of 20 μL is mixed and incubated at 37° C. for 30 min. Following incubation, 1 μL of RQ1 RNase free DNase is added and the mixture is incubated at 37° C. for 15 min. The resulting RNA is then purified with the MegaClear Kit (Gibco Life Technologies Cat #11835-030) and is eluted two times with 50 μL of elution buffer at 95° C. […] Replicon activity is then measured by a Renilla-Glo Luciferase Assay system. Prior to signal quantification, plates are removed from incubators and are allowed to equilibrate to 25° C. after 50 uL is removed from each well. […] Plates are then incubated for 20 min at 25° C. under gentle agitation and luciferase signal are determined with a 0.1 second detection setting using an EnVision luciferase quantification reader.

Data set [3] concerns Dengue serotype 2 New Guinea C (NGC) strain. Description: DENV-2 Huh-7 EC50. Type of data set: cell-based. Particulars: Dengue virus, Huh7 cells, 48 hours, qPCR. The protocol: Huh7 (Human hepatocarcinoma 7) cells were maintained in 10% FCS-containing DMEM complete media. On the day of the assay, cells were trypsinized (0.1% Trypsin-EDTA), washed and infected for 2 hours in serum-free DMEM with Dengue serotype 2 New Guinea C (NGC) strain at MOI=0.1 with gentle agitation at 37° C. After 2 hours, cells were washed with serum-free media and suspended in 10% FCS-containing DMEM (Gibco, supplemented with sodium pyruvate, NEAA, Penicillin-Streptomycin). […] were plated in triplicate in 96-well plates with compounds dispensed at graded doses (Hewlett-Packard D300 Digital Dispenser). All wells were normalized to 0.25% DMSO. At 48 hours, cells were washed with 1×PBS and all supernatants removed. Total RNA was extracted using RNEasy 96 plates (Qiagen) and used to generate first-strand cDNA using XLT cDNA 5× Supermix (QuantaBio). cDNA was used as a template in a Taqman qPCR duplex reaction specific to DENV2 viral and GAPDH gene expression. EC50 values were determined using Prism Graphpad software, with normalization to a positive control and no compound negative control wells.

A word on the EC50: it is the concentration needed to bring the measured effect to its halfway point.

For the compound `C[C@H](N[P@](=O)(OC[C@@]1(C#N)O[C@@H](c2ccc3c(N)ncnn23)[C@H](O)[C@@H]1O)Oc1ccccc1)C(=O)OC1CCCCC1` [Formula I, cyclohexyl ((S)-(((2R,3S,4R,5S)-5-(4-aminopyrrolo[2,1-f][1,2,4]triazin-7-yl)-2-cyano-3,4-dihydroxytetrahydrofuran-2-yl)methoxy)(phenoxy)phosphoryl)-L-alaninate], the figures for the 50% effective concentration (EC50) (in data set [1]; in the data set on HRVc25 replicon; in data set [3]) were above 6190 nM, 7 nM and 1630 nM, respectively. Besides, the “in-vitro intracellular NTP formation in NHBEs” value in data set [2] is given as “equal to or better”.

(Values after patent publication US20250034186A1, “ANTIVIRAL COMPOUNDS” (priority 2020, published 2025).)
